One test addresses T1, HEK-Blue-hTLR7 cells (Homo sapiens, UniProt Q9NYK1).
T1 construct: expressed in transfected cells; host or cells: HEK-Blue-hTLR7 cells (HEK293-derived reporter line)
T1 sequence (Q9NYK1 27-1049): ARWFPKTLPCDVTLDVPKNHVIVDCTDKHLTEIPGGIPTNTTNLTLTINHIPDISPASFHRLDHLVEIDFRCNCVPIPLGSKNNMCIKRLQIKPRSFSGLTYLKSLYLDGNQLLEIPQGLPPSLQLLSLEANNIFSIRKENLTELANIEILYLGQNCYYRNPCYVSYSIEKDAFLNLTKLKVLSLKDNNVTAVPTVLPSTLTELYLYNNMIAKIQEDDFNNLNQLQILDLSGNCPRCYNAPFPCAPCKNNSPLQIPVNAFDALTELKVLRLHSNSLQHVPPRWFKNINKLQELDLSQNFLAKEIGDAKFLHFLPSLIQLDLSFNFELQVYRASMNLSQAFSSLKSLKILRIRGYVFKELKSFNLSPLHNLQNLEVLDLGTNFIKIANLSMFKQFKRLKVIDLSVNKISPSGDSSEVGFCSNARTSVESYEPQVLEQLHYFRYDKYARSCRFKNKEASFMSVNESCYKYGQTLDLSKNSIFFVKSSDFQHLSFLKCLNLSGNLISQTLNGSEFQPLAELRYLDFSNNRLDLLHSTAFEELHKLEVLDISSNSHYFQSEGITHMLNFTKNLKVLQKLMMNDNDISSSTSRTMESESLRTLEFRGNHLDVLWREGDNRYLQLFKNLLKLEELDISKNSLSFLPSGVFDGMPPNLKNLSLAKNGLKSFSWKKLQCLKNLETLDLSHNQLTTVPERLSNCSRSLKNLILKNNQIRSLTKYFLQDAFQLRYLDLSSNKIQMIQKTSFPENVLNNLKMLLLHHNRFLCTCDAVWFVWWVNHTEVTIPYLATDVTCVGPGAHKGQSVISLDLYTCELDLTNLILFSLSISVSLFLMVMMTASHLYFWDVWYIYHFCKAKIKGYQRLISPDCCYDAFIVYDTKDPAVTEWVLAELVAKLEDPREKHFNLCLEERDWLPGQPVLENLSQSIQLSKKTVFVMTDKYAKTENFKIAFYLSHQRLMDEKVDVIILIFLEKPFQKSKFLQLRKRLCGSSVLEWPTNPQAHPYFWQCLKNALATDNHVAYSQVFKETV
As to the kind of experiment: HEK-Blue-hTLR7 cell inhibition assay. The test is classed as cell-based. The conditions noted are these: R848 0.8 µM, 16 h, OD 620 nm, read-out: TLR7 IC50. How it is done: (§1) HEK-Blue-hTLR7/8/9 cell inhibition assay
(§2) 1. HEK-Blue-hTLR7/8 cells (1 × 10^4 cells/well) and HEK-Blue-hTLR9 cells (1.5 × 10^4 cells/well) were seeded in a 384-well cell culture plate, with a volume of 30 µL per well. The plate was incubated at 37°C in a 5% CO2 incubator for 4 h. 2. The compound was prepared with DMSO and diluted in DMEM medium to 10 concentrations (1:3 dilution), with final concentrations of 10000, 3333.3, 1111.1, 370.4, 123.5, 41.2, 13.7, 4.6, 1.5, and 0.5 nM; R848 was prepared with DMSO and diluted in DMEM medium, with final concentrations of 0.8 µM (HEK-Blue-hTLR7) and 3 µM (HEK-Blue-hTLR8); ODN2006 was prepared with endotoxin-free water and diluted in DMEM medium, with a final concentration of 1 µM. 3. Cells treated with DMSO were used as the blank control group, while cells treated solely with Resiquimod (R848) were used as the positive control group for HEK-Blue-hTLR7/8, and cells treated solely with ODN2006 were used as the positive control group for HEK-Blue-hTLR9. Cells treated with the test compound together with R848 or ODN2006 were used as the test group. Two parallel wells were set for each group and were placed at 37°C in a 5% CO2 incubator for incubation. 4. After being incubated for 4 h, the 384-well plate of HEK-Blue-hTLR7/8 was taken out from the incubator, and R848 alone or both R848 and the diluted compound were separately added into each well. The plate was placed at 37°C in a 5% CO2 incubator for incubation for 16 h; the 384-well plate of HEK-Blue-hTLR9 was taken out from the incubator, and ODN2006 alone or both ODN2006 and the diluted compound were added separately to each well. The plate was incubated at 37°C in a 5% CO2 incubator for 16 h. 5. After being incubated for 16 h, the 384-well plate was removed from the incubator and centrifuged at 1000 rpm for 1 minute. The optical density value of each well at 620 nm was measured using a multifunctional microplate reader. 6. The cell inhibition rate was calculated as (1-(OD620 test group-OD620 blank group)/(OD620 positive group-OD620 blank group))×100%, and the half maximal inhibitory concentration (IC50) was calculated through curve fitting. Table 1: Activity of the compounds of the present disclosure in HEK-Blue-hTLR7/8/9 cellular assays

In the next test the target is T2, HEK-Blue-hTLR8 cells (Homo sapiens, UniProt Q9NR97).
T2 construct: expressed in transfected cells; host or cells: HEK-Blue-hTLR8 cells (HEK293-derived reporter line)
T2 sequence (Q9NR97 27-1041): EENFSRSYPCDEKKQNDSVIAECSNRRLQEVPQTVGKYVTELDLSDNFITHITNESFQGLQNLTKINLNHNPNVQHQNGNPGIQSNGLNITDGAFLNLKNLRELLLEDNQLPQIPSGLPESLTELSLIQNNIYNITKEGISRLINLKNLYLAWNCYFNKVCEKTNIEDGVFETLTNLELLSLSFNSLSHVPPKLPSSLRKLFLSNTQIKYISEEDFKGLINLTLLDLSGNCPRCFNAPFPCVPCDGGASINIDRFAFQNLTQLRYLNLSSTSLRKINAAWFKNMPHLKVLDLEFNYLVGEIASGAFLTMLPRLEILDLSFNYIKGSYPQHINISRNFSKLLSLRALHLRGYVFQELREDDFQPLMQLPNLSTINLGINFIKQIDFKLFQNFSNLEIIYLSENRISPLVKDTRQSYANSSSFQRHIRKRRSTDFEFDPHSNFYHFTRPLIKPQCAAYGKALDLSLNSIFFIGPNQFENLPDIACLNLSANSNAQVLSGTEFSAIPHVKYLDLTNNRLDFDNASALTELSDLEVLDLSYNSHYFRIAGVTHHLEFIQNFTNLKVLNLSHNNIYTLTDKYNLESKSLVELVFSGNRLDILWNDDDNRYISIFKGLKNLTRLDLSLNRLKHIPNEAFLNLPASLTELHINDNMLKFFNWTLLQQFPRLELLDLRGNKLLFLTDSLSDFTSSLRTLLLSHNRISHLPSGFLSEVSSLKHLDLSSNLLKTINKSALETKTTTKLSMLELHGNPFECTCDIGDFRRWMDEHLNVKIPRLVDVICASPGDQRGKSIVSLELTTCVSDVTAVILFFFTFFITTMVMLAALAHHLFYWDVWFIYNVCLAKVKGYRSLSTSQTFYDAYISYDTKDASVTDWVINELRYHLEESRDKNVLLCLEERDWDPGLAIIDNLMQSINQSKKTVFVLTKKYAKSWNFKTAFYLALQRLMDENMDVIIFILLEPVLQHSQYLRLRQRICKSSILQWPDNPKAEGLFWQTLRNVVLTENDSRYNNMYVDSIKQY
Kind of test: HEK-Blue-hTLR8 cell inhibition assay. The test is classed as cell-based. The conditions noted are these: R848 3 µM, 16 h, OD 620 nm, read-out: TLR8 IC50. How it is done:
as §1, §2

Consider twelve compounds from patent EP4806891A1 (Kangbaida (Sichuan) Biotechnology Co., Ltd., priority 2023, dated 2025).

As to `CN1CC2(CC(c3nnc([C@]45CN(c6ccc(C(F)(F)F)c7ncccc67)C[C@@]4(C(F)(F)F)C5)o3)C2)C1` [Compound 16, 2-(2-methyl-2-azaspiro[3.3]heptan-6-yl)-5-((1S,5R)-5-(trifluoromethyl)-3-(8-(trifluoromethyl)quinolin-5-yl)-3-azabicyclo[3.1.0]hexan-1-yl)-1,3,4-oxadiazole], the IC50 on HEK-Blue-hTLR7 cells and at HEK-Blue-hTLR8 cells was under 100 nM in each case.

Regarding `N#Cc1ccc(N2C[C@]3(c4nnc(OCCN5CCCC5)o4)C[C@]3(C(F)(F)F)C2)c2cccnc12` [Compound 48, 5-((1S,5R)-1-(5-(2-(pyrrolidin-1-yl)ethoxy)-1,3,4-oxadiazol-2-yl)-5-(trifluoromethyl)-3-azabicyclo[3.1.0]hexan-3-yl)quinoline-8-carbonitrile], the half-maximal inhibitory concentration (IC50) at HEK-Blue-hTLR7 cells and on HEK-Blue-hTLR8 cells was under 100 nM in each case.

Consider `CN1CCC(c2nnc([C@]34CN(c5ccc(C#N)c6nc(Cl)ccc56)C[C@@]3(C(F)(F)F)C4)o2)CC1` [Compound 58, 2-chloro-5-((1S,5R)-1-(5-(1-methylpiperidin-4-yl)-1,3,4-oxadiazol-2-yl)-5-(trifluoromethyl)-3-azabicyclo[3.1.0]hexan-3-yl)quinoline-8-carbonitrile], for which the concentration for half-maximal inhibition (IC50) at HEK-Blue-hTLR7 cells and at HEK-Blue-hTLR8 cells was over 1000 nM each time.

In the case of `COc1ccc2c(N3C[C@]4(c5nnc(C6CCN(C)CC6)o5)C[C@]4(C(F)(F)F)C3)ccc(C#N)c2n1` [Compound 61, 2-methoxy-5-((1S,5R)-1-(5-(1-methylpiperidin-4-yl)-1,3,4-oxadiazol-2-yl)-5-(trifluoromethyl)-3-azabicyclo[3.1.0]hexan-3-yl)quinoline-8-carbonitrile], the 50% inhibitory concentration (IC50) at HEK-Blue-hTLR7 cells is over 1000 nM; at HEK-Blue-hTLR8 cells, under 1000 nM.

For the compound `CN1CCC(c2nnc([C@]34CN(c5ccc([N+](=O)[O-])c6ncccc56)C[C@@]3(C(F)(F)F)C4)o2)CC1` [Compound 62, 2-(1-methylpiperidin-4-yl)-5-((1S,5R)-3-(8-nitroquinolin-5-yl)-5-(trifluoromethyl)-3-azabicyclo[3.1.0]hexan-1-yl)-1,3,4-oxadiazole], the half-inhibitory concentration (IC50) on HEK-Blue-hTLR7 cells and on HEK-Blue-hTLR8 cells was under 100 nM each time.

With `CN1CCN(c2nnc([C@]34CN(c5ccc(C#N)n6ncc(F)c56)C[C@@]3(C(F)(F)F)C4)o2)CC1` [Compound 63, 3-fluoro-4-((1S,5R)-1-(5-(4-methylpiperazin-1-yl)-1,3,4-oxadiazol-2-yl)-5-(trifluoromethyl)-3-azabicyclo[3.1.0]hexan-3-yl)pyrazolo[1,5-a]pyridine-7-carbonitrile], the IC50 at HEK-Blue-hTLR7 cells and at HEK-Blue-hTLR8 cells was under 100 nM throughout.

In the case of `Cc1ccc(N2C[C@]3(c4nnc(C5CCN(C)CC5)o4)C[C@]3(C(F)(F)F)C2)c2cccnc12` [Compound 65, 2-(1-methylpiperidin-4-yl)-5-((1S,5R)-5-(trifluoromethyl)-3-(8-methylquinolin-5-yl)-3-azabicyclo[3.1.0]hexan-1-yl)-1,3,4-oxadiazole], the IC50 on HEK-Blue-hTLR7 cells and at HEK-Blue-hTLR8 cells was under 100 nM each time.

As for `CN1CCC(c2nnc([C@]34CN(c5ccc(Cl)c6ncccc56)C[C@@]3(C(F)(F)F)C4)o2)CC1` [Compound 67, 2-((1S,5R)-3-(8-chloroquinolin-5-yl)-5-(trifluoromethyl)-3-azabicyclo[3.1.0]hexan-1-yl)-5-(1-methylpiperidin-4-yl)-1,3,4-oxadiazole], the IC50 at HEK-Blue-hTLR7 cells and on HEK-Blue-hTLR8 cells was under 100 nM throughout.

Regarding `CN1CCC(c2nnc([C@]34CN(c5cnc(C#N)c6ncccc56)C[C@@]3(C(F)(F)F)C4)o2)CC1` [Compound 68, 5-((1S,5R)-1-(5-(1-methylpiperidin-4-yl)-1,3,4-oxadiazol-2-yl)-5-(trifluoromethyl)-3-azabicyclo[3.1.0]hexan-3-yl)-1,7-naphthyridine-8-carbonitrile], the concentration for half-maximal inhibition (IC50) on HEK-Blue-hTLR7 cells and on HEK-Blue-hTLR8 cells was under 100 nM each time.

On to `CN1CCC(c2nnc([C@]34CN(c5ccc(F)c6ncccc56)C[C@@]3(C(F)(F)F)C4)o2)CC1` [Compound 69, 2-((1S,5R)-3-(8-fluoroquinolin-5-yl)-5-(trifluoromethyl)-3-azabicyclo[3.1.0]hexan-1-yl)-5-(1-methylpiperidin-4-yl)-1,3,4-oxadiazole], for which the concentration for half-maximal inhibition (IC50) at HEK-Blue-hTLR7 cells and on HEK-Blue-hTLR8 cells was under 100 nM in each case.

Consider `CCc1nc2c(C#N)ccc(N3C[C@]4(c5nnc(C6CCN(C)CC6)o5)C[C@]4(C(F)(F)F)C3)c2nc1CC` [Compound 70, 2,3-diethyl-8-((1S,5R)-1-(5-(1-methylpiperidin-4-yl)-1,3,4-oxadiazol-2-yl)-5-(trifluoromethyl)-3-azabicyclo[3.1.0]hexan-3-yl)quinoxaline-5-carbonitrile], for which the IC50 on HEK-Blue-hTLR7 cells is over 1000 nM; on HEK-Blue-hTLR8 cells it was over 10000 nM.

Turning to `CN1CCC(c2nnc([C@]34CN(c5ccc(C#N)c6c5ccc(=O)n6C)C[C@@]3(C(F)(F)F)C4)o2)CC1` [Compound 72, 1-methyl-5-((1S,5R)-1-(5-(1-methylpiperidin-4-yl)-1,3,4-oxadiazol-2-yl)-5-(trifluoromethyl)-3-azabicyclo[3.1.0]hexan-3-yl)-2-oxo-1,2-dihydroquinoline-8-carbonitrile], the values for the IC50 on HEK-Blue-hTLR7 cells and on HEK-Blue-hTLR8 cells were over 1000 nM and under 1000 nM, respectively.

As usually defined, the IC50 is the concentration at which inhibition is half-maximal.
